Here are results for eight compounds from patent publication US5883121A, “Epoxysuccinamide derivative or salt thereof, and medicine comprising the same” (Taiho Pharmaceutical Co., Ltd., priority 1995, dated 1999).

Where a name gives a salt, the structure may show the parent alone.

Holding throughout (type): biochemical
The target of one assay is T1, cathepsin H (Homo sapiens, UniProt P09668).
T1 construct: purchased Sigma Co
T1 sequence (P09668 98-335): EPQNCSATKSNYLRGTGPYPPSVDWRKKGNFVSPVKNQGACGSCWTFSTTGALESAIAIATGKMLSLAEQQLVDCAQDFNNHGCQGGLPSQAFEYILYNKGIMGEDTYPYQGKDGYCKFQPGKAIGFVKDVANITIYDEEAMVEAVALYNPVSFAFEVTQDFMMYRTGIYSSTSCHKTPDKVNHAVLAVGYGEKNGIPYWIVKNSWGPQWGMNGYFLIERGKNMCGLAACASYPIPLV
Briefly: Determination of inhibition rate against cathepsin H. The note with it: purified cathepsin H (Sigma Co.); substrate Arg-MCA; pH 5.5; 30° C; 10 minutes. How it is done:
Determination of inhibition rate against cathepsin L, B and H
A purified product was purchased from Sigma Co. and used as cathepsin H, and as a substrate thereof, Arg-MCA was used.
(§1) Each cathepsin was diluted with a diluent (0.1% Brij 35) to adjust its concentration to 0.3 U (0.1 U: a concentration at which 1.0 nmol of MCA is released per minute at 37° C.). To 500 μl of this solution, were added 250 μl of an activator/buffer (340 mM sodium acetate, 60 mM acetic acid, 4 mM disodium EDTA; pH 5.5). After the mixture was incubated for 1 minute at 30° C., the sample solution of the predetermined concentration and […] of a substrate solution were added to conduct a reaction for 10 minutes.

The next assay addresses T2, cathepsin L (Rattus norvegicus, UniProt P07154).
T2 construct: extracted from a rat liver and completely purified; from tissue; host or cells: rat liver
Briefly: Determination of inhibition rate against cathepsin L. The note with it: for B/L: IC50 against cathepsin B divided by IC50 against cathepsin L; for IC50: cathepsin L from rat liver, substrate Z-Phe-Arg-MCA, pH 5.5, 30° C, 10 minutes. As to the method: (§2) Determination of inhibition rate against cathepsin L, B and H […]
as §1

In a further assay the target is T3, cathepsin B (Rattus norvegicus, UniProt P00787).
T3 construct: extracted from a rat liver and completely purified; from tissue; host or cells: rat liver
T3 sequence (P00787 129-333 limits assumed): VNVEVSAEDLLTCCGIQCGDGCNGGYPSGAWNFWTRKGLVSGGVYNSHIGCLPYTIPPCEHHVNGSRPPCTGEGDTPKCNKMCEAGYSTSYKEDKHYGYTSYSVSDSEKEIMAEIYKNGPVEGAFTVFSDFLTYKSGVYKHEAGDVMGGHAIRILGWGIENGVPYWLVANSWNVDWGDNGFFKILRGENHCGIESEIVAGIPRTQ
T3 sequence (P00787 80-126 limits assumed): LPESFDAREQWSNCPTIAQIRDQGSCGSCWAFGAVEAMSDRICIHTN
Briefly: Determination of inhibition rate against cathepsin B. As to conditions: cathepsin B from rat liver; substrate Z-Arg-Arg-MCA; pH 5.5; 30° C; 10 minutes. As to the method:
as §2, §1

T2 sequence (P07154 114-288 limits assumed): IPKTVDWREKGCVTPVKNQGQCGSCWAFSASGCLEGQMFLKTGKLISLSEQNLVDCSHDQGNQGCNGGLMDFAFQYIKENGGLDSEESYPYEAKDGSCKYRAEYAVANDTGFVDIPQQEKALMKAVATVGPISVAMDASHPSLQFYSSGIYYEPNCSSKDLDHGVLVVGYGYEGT
T2 sequence (P07154 291-334 limits assumed): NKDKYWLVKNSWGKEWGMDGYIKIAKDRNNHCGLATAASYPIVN

`NCCCC[C@H](NC(=O)[C@H]1O[C@@H]1C(=O)NCCc1ccccc1)C(=O)Nc1cccc2ccccc12` [Example 2, Nα-[L-3-trans-(2-phenylethylcarbamoyl)oxirane-2-carbonyl]-L-lysine-1-naphthylamide hydrochloride]: the concentration for half-maximal inhibition (IC50) was > 10 µM against cathepsin H, 35 nM at cathepsin L and > 10 µM against cathepsin B. Also, at cathepsin L, the B/L is reported as > 285.
With `NCCCC[C@H](NC(=O)[C@H]1O[C@@H]1C(=O)N[C@@H](Cc1ccccc1)C(N)=O)C(=O)Nc1cccc2ccccc12` [Example 14, Nα-{L-3-trans-[(S)-1-carbamoyl-2-phenylethylcarbamoyl]oxirane-2-carbonyl}-L-lysine-1-naphthylamide hydrochloride], the IC50 against cathepsin H is > 10 µM; at cathepsin L it was 15 nM; against cathepsin B, > 10 µM. Further, the B/L on cathepsin L is given as > 667.
Turning to `NCCCC[C@H](NC(=O)[C@H]1O[C@@H]1C(=O)N[C@@H](Cc1ccccc1)C(=O)NCc1ccccc1)C(=O)Nc1cccc2ccccc12` [Example 26, Nα-{L-3-trans-[(S)-1-benzylcarbamoyl-2-phenylethylcarbamoyl]oxirane-2-carbonyl}-L-lysine-1-naphthylamide hydrochloride], the figures for the IC50 at cathepsin H, against cathepsin L and against cathepsin B were 3.2 µM, 0.4 nM and 3 µM, respectively. Besides, at cathepsin L, the B/L amounted to 7500.
`NCCCC[C@H](NC(=O)[C@H]1O[C@@H]1C(=O)Nc1cccc2ccccc12)C(=O)Nc1cccc2ccccc12` [Example 30, Nα-[L-3-trans-(1-naphthylcarbamoyl)oxirane-2-carbonyl]-L-lysine-1-naphthylamide hydrochloride]: the IC50 on cathepsin H was determined as 6 µM; at cathepsin L, 72 nM; on cathepsin B, 6.8 µM. At cathepsin L, this compound yielded a B/L of 94.4.
With `CC(=O)NCCCC[C@H](NC(=O)[C@H]1O[C@@H]1C(=O)N[C@@H](Cc1ccccc1)C(=O)NCCc1ccccc1)C(=O)Nc1cccc2ccccc12` [Example 32, Nα-{L-3-trans-[(S)-1-(2-phenylethylcarbamoyl)-2-phenylethylcarbamoyl]oxirane-2-carbonyl}-Nε-acetyl-L-lysine-1-naphthylamide], the figures for the IC50 against cathepsin H, at cathepsin L and against cathepsin B were 4.8 µM, 0.04 nM and 7 µM, respectively. The B/L at cathepsin L turned out to be 17500.
`CCNC(=O)[C@H](Cc1ccccc1)NC(=O)[C@H]1O[C@@H]1C(=O)N[C@@H](CCCCN)C(=O)Nc1ccccc1` [Example 67, Nα-{L-3-trans-[(S)-1-ethylcarbamoyl-2-phenylethylcarbamoyl]oxirane-2-carbonyl)-L-lysine anilide hydrochloride] returned a B/L at cathepsin L of 1570. Further, the IC50 at cathepsin L turned out to be 36 nM; on cathepsin B, 68 µM.
On to `NCCCC[C@H](NC(=O)[C@H]1O[C@@H]1C(=O)N[C@@H](Cc1ccccc1)C(=O)NC1CCCCC1)C(=O)Nc1ccccc1` [Example 69, Nα-{L-3-trans-[(S)-1-cyclohexylcarbamoyl-2-phenylethylcarbamoyl]oxirane-2-carbonyl}-L-lysine anilide hydrochloride], for which, at cathepsin L, the B/L is > 1177 and the IC50 turned out to be 8.5 nM. Moreover, the IC50 on cathepsin B is > 10 µM.
For `NCCCCCCCCNC(=O)[C@H](Cc1ccccc1)NC(=O)[C@H]1O[C@@H]1C(=O)O` [Preparation Example 61, N-{N-[(2S,3S)-3-trans-Carboxyoxirane-2-carbonyl]-L-phenylalanyl}-1,8-diaminooctane, reference compound] the same measures were 28.4, 0.81 nM and 0.023 µM.

By IC50 is commonly meant the concentration that inhibits the measured activity by half.
